From paper PMC11634579, “Network pharmacology, experimental validation and pharmacokinetics integrated strategy to reveal pharmacological mechanism of goutengsan on methamphetamine dependence” (Frontiers in Pharmacology, 2024)
Entries after “also recorded” stand apart in the source; their conditions may differ.

Assay: Pharmacokinetics and brain tissue distribution after gavage of GTS (UPLC-MS)
Type: in vivo, Babl/c mice
Details: mice, after oral administration of GTS
Method: Animal experiments: Babl/c mice weighing 18–22 g (6–8 weeks old) with equal numbers of males and females, were provided by the Experimental Animal Center of Southern Medical University. The mice were maintained at room temperature (20 ± 2) °C, humidity (60 ± 5)%, 12 h light cycles, and provided an ad libitum diet. Thirty mice were randomly divided into 0.5, 2, 4, 6 and 9 h groups, with 6 mice each. An infusion at concentration of 2.75 g of GTS crude drug/mL was obtained, and the drug was administered by gavage at a dose of 2 mL GTS infusion drug/kg. After 0.5, 2, 4, 6 and 9 h of administration, the plasma and brain tissues in the 0.5, 2, 4, 6 and 9 h groups were collected. The plasma and brain tissue samples were processed in accordance with biological sample processing procedures.
Establishment of UPLC-MS method: An LCMS-8050 liquid chromatography mass spectrometer (Shimadzu, Japan) was operated with a horizon C18 column (100 × 2.1 mm, 3 µm). The mobile phase was 0.1% formic acid in water (A) - acetonitrile (B), and the gradient elution was 0–8 min, 10%–50% B; 8–9 min, 50%–10% B; 9–11 min, 10% B. The column temperature was 30°C, the injection volume was 5 μL, and flow rate was 0.4 mL min^−1. The mass spectrometry conditions included HPLC-MS/MS in […] full-scan and sub-ion scanning modes, an electrospray ionization source (ESI), positive and negative ion mode detection, and nebulizing gas of nitrogen (N2). The zeroed gas flow rate was 3 L min^−1, desolventization temperature was 526°C, and DL temperature was 250°C. Then the parent ion, daughter ion, collision energy, and polarity of the above components were determined (Table 2).
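Throughout, for BBB (blood–brain–barrier): unitless TCMSP predicted score with screening cut-off BBB at least 0.3.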

| Compound | exposure in plasma and brain | detection in brain tissues | detection in plasma |
| --- | --- | --- | --- |
| COc1c2c(cc3oc(C)cc(=O)c13)OC(C(C)(C)O[C@@H]1O[C@H](CO)[C@@H](O)[C@H](O)[C@H]1O)C2 (stereo partly drawn) [5-O-Methylviscumaboloside] | exposed in the plasma and brain | – | – |
| O=C(/C=C/c1ccc(O)c(O)c1)O[C@@H]1C[C@](O)(C(=O)O)C[C@@H](O)[C@H]1O [Chlorogenic acid] | exposed in the plasma and brain; also recorded: absorbed into the bloodstream and distributed to brain tissues | – | – |
| CC1(C)[C@@H](O[C@H]2O[C@H](C(=O)O)[C@@H](O)[C@H](O)[C@H]2O[C@@H]2O[C@H](C(=O)O)[C@@H](O)[C@H](O)[C@H]2O)CC[C@]2(C)[C@H]3C(=O)C=C4[C@@H]5C[C@@](C)(C(=O)O)CC[C@]5(C)CC[C@@]4(C)[C@]3(C)CC[C@@H]12 [Glycyrrhizic acid] | – | undetectable | detectable in plasma and at high levels |

Same assay, conditions: mice, gavage of GTS infusion (2.75 g crude drug/mL, 2 mL/kg); sampling 0.5, 2, 4, 6, 9 h

| Compound | time at which concentration in brain peaked [h] |
| --- | --- |
| COc1c2c(cc3oc(C)cc(=O)c13)OC(C(C)(C)O[C@@H]1O[C@H](CO)[C@@H](O)[C@H](O)[C@H]1O)C2 (stereo partly drawn) [5-O-Methylviscumaboloside] | 6 |

Assay: not given
Set-up: method as in Ru et al., 2014
Details: obtained from TCMSP database; ref Ru et al., 2014; cited from earlier work

| Compound | BBB (blood–brain–barrier) | OB% (oral bioavailability) [%] |
| --- | --- | --- |
| COc1cc(O)cc2c1[C@@H]1Oc3c(ccc(O)c3CC=C(C)C)[C@@H]1CO2 [1-methoxyphaseollidin] | 0.48 | 69.98 |
| COc1ccc(C2COc3c(ccc4c3C=CC(C)(C)O4)C2)c(O)c1O (stereo not drawn) [3′-hydroxy-4′-O-methylglabridin] | 0.73 | 43.71 |
| COc1c(O)ccc(C2COc3c(ccc4c3C=CC(C)(C)O4)C2)c1O (stereo not drawn) [3′-methoxyglabridin] | 0.47 | 46.16 |
| COc1c2c(cc3oc(C)cc(=O)c13)OC(C(C)(C)O[C@@H]1O[C@H](CO)[C@@H](O)[C@H](O)[C@H]1O)C2 (stereo partly drawn) [5-O-Methylviscumaboloside] | 0.56 | 32.47 |
| CC(C)[C@@H](C)/C=C/[C@@H](C)[C@H]1CC[C@H]2C3=CC[C@H]4C[C@@H](O)CC[C@]4(C)[C@H]3CC[C@]12C [5-dihydroergosterol] | 0.91 | 43.51 |
| CCCCC[C@H](O)CC(=O)CCc1ccc(O)c(OC)c1 [6-Gingerol] | 1.22 | 61.22 |
| COc1ccc2c(=O)c(-c3ccccc3)c(C)oc2c1 [7-methoxy-2-methyl isoflavone] | 0.56 | 42.56 |
| CCCCCCC=CCC=CCCCCCCCCC(=O)O [10,13-eicosadienoic acid] | 0.82 | 39.99 |
| CCC(CC[C@@H](C)[C@H]1CC[C@H]2[C@@H]3CCC4=CC(=O)CC[C@]4(C)[C@H]3CC[C@]12C)C(C)C (stereo partly drawn) [24-ethylcholest-4-en-3-one] | 1.22 | 36.08 |
| CC(C)=CCOc1c2occc2cc2ccc(=O)oc12 [Ammidin] | 0.92 | 34.55 |
| C=C(C(=O)OC1CC2NC(C1)C1OC21)c1ccccc1 (stereo not drawn) [Aponorhyoscine] | 0.40 | 66.65 |
| CCCCC/C=C\C/C=C\C/C=C\C/C=C\CCCC(=O)O [Arachidonate] | 0.58 | 45.57 |
| CC[C@H](CC[C@@H](C)[C@H]1CC[C@H]2[C@@H]3CC=C4C[C@@H](O)CC[C@]4(C)[C@H]3CC[C@]12C)C(C)C [Beta-sitosterol] | 0.99 | – |
| CCCCCCCCOC(=O)c1ccccc1C(=O)OCCCC [Butyl octyl phthalate] | 0.60 | 43.74 |
| COc1cc2c(cc1OC)[C@H]1[C@@H](C)c3ccc4c(c3CN1CC2)OCO4 [Cavidine] | 0.63 | 35.64 |
| O=C(/C=C/c1ccc(O)c(O)c1)O[C@@H]1C[C@](O)(C(=O)O)C[C@@H](O)[C@H]1O [Chlorogenic acid] | 0.94 | 30.70 |
| CC[C@@H](CC[C@@H](C)[C@H]1CC[C@H]2[C@@H]3CC=C4C[C@@H](O)CC[C@]4(C)[C@H]3CC[C@]12C)C(C)C [Clionasterol] | 1.14 | – |
| C=C[C@H]1CN2CC[C@]3(C(=O)Nc4ccccc43)[C@@H]2C[C@@H]1/C(=C\OC)C(=O)OC [Corynoxeine] | 0.50 | 57.13 |
| CC(C)=CCC[C@@H](C)[C@H]1CC[C@@]2(C)[C@@H]3CC[C@H]4C(C)(C)[C@@H](O)CC[C@@]45C[C@@]35CC[C@]12C [Cycloartenol] | 1.33 | – |
| COc1cc(CNC(=O)CCCCCCC(C)C)ccc1O [Dihydrocapsaicin] | 0.47 | 47.07 |
| CC(C)[C@@H](C)/C=C/[C@@H](C)[C@H]1CC[C@@H]2[C@]1(C)CC[C@H]1[C@]23C=C[C@]2(C[C@@H](O)CC[C@]12C)OO3 [Ergosterol peroxide] | 0.34 | 40.36 |
| O=c1oc2ccccc2c2oc3ccccc3c(=O)c12 [Frutinone A] | 0.46 | 65.90 |
| CC(C)=CCc1c(O)cc(O)c2c1O[C@H](c1ccccc1)CC2=O [Glabranin] | 0.31 | 52.90 |

| Compound | BBB (blood–brain–barrier) | OB% (oral bioavailability) [%] |
| --- | --- | --- |
| CC1(C)C=Cc2c(ccc3c2OC[C@@H](c2ccc(O)cc2O)C3)O1 [Glabridin] | 0.36 | 53.25 |
| CC1(C)[C@@H](O[C@H]2O[C@H](C(=O)O)[C@@H](O)[C@H](O)[C@H]2O[C@@H]2O[C@H](C(=O)O)[C@@H](O)[C@H](O)[C@H]2O)CC[C@]2(C)[C@H]3C(=O)C=C4[C@@H]5C[C@@](C)(C(=O)O)CC[C@]5(C)CC[C@@]4(C)[C@]3(C)CC[C@@H]12 [Glycyrrhizic acid] | 0.80 | 30.70 |
| CC1(C)CC[C@]2(C(=O)O)CC[C@]3(C)C(=CC[C@@H]4[C@@]5(C)CC[C@H](O)[C@@](C)(CO)[C@@H]5CC[C@]43C)[C@@H]2C1 [Hederagenin] | 0.96 | – |
| CC[C@H]1CN2CCc3c([nH]c4ccccc34)[C@H]2C[C@@H]1/C(=C\OC)C(=O)OC [Hirsutine] | 0.78 | 34.44 |
| CCCCCCCCCCCCCCC=CCCCC(=O)O [Icos-5-enoic acid] | 1.09 | 30.70 |
| Oc1ccc2c(c1)OC[C@H]1c3cc4c(cc3O[C@@H]21)OCO4 [Inermin] | 0.36 | 65.83 |
| Oc1ccc2c(c1)OC[C@H]1c3cc4c(cc3O[C@@H]21)OCO4 [Inermine] | 0.40 | 75.18 |
| CC(C)=CCOc1c2ccoc2cc2oc(=O)ccc12 [Isoimperatorin] | 0.66 | 45.46 |
| CC[C@H]1CN2CC[C@@]3(C(=O)Nc4ccccc43)[C@@H]2C[C@@H]1/C(=C\OC)C(=O)OC [Isorhyncophylline] | 0.33 | 47.31 |
| CCCCC/C=C\C/C=C\CCCCCCCC(=O)OCC [Mandenol] | 1.14 | 42.00 |
| CCCCCC=CCC=CCCCCCCCCCC(=O)OC [Methyl icosa-11,14-dienoate] | 1.10 | 39.67 |
| CC1(C)C=Cc2c(ccc([C@@H]3COc4cc(O)ccc4C3)c2O)O1 [Phaseolinisoflavan] | 0.46 | 32.01 |
| COc1c2ccoc2c(OCC=C(C)C)c2oc(=O)ccc12 [Phellopterin] | 0.48 | 40.19 |
| COc1c2ccoc2c(OCC=C(C)C)c2oc(=O)ccc12 [Phelloptorin] | 0.43 | 43.39 |
| CC(C)=CCc1c2ccoc2c(O)c2oc(=O)ccc12 [Prangenidin] | 0.50 | 36.31 |
| CC1(C)C=Cc2c(ccc3c2OC[C@H]2c4ccc(O)cc4O[C@@H]32)O1 [Shinpterocarpin] | 0.68 | 80.30 |
| CC[C@H](CC[C@@H](C)[C@H]1CC[C@H]2[C@@H]3CC=C4C[C@@H](O)CC[C@]4(C)[C@H]3CC[C@]12C)C(C)C [Sitosterol] | 0.87 | – |
| CC[C@H](/C=C/[C@@H](C)[C@H]1CC[C@H]2[C@@H]3CC=C4C[C@@H](O)CC[C@]4(C)[C@H]3CC[C@]12C)C(C)C [Stigmasterol] | 1.00 | 43.83 |
| COC(=O)C1=CO[C@@H](C)[C@@H]2CN3CCc4c([nH]c5ccccc45)[C@@H]3C[C@H]12 [Tetrahydroalstonine] | 0.33 | 32.42 |
| CC1(C)C=Cc2cc([C@@H]3CC(=O)c4ccc5c(c4O3)C=CC(C)(C)O5)ccc2O1 [Xambioona] | 0.52 | 54.85 |
| C=C[C@H]1CN2CCc3c([nH]c4ccccc34)[C@H]2C[C@@H]1/C(=C\OC)C(=O)OC [delta (sup 18)-Hirsutine] | 0.76 | 41.64 |
| Medicarpin | 0.53 | 49.22 |
